20 molecules from US8404708B2, “Dual NK1/NK3 receptor antagonists” (Hoffmann-La Roche Inc., priority 2004, dated 2013) can be followed below.

The structures appear in SMILES notation. Like-named read-outs stand apart in the source and are kept apart here.

Test [1] deals with human NK1 receptor (Homo sapiens, UniProt P25103). The test can be described thus: NK1 receptor binding, [3H]substance P displacement, CHO cell membranes.
In test [2] the target is T1, Recombinant human NK3 (hNK3) receptor (Homo sapiens, UniProt P29371).
T1 construct: expressed in transfected cells
T1 sequence (P29371 1-465): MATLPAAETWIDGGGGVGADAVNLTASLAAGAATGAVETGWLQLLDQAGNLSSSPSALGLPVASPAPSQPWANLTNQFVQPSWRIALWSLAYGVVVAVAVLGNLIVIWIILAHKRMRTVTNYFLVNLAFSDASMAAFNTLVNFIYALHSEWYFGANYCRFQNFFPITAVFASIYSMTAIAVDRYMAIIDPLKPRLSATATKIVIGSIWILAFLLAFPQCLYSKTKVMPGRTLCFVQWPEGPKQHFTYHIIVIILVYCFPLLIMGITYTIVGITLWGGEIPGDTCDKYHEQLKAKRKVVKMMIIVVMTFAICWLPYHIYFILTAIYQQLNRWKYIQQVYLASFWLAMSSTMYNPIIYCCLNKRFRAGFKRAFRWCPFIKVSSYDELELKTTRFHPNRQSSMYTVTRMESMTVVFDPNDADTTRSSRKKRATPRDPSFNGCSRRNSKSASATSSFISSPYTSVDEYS
The test is described as follows: NK3 receptor binding, [3H]SR142801 displacement, membrane preparations. An outline of the steps:
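Room-temperature, 90-min filtration binding assay using about 2.5 μg recombinant receptor membranes per well; separation on polyethyleneimine-treated glass-fibre (GF/C) filters and liquid scintillation read-out, with 10 μM SB222200 for nonspecific binding.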

The mark [3] stands for this setting: first value of the cell pKi NK1/NK3, human NK1 receptor, [3H]substance P.
Where [4] appears, read: second value of the cell pKi NK1/NK3, hNK3 receptor, [3H]SR142801.
Setting [5] is: first value of the cell NK1/NK3, read-out: pKi NK1 (converted).
Where [6] appears, read: second value of the cell NK1/NK3, read-out: pKi NK3 (converted).

Sequence of human NK1 receptor (P25103 whole entry): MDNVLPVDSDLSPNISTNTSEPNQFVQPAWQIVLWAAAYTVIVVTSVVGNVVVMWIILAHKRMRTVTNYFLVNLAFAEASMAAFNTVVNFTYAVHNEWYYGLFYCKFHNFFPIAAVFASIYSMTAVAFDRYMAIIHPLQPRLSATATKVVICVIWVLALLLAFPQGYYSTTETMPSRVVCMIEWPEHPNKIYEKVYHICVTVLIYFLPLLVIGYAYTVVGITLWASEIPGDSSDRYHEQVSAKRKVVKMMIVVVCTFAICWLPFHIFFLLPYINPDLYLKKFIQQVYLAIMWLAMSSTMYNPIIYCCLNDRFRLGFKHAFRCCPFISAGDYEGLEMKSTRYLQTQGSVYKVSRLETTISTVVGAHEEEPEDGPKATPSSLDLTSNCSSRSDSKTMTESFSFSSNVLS

For the molecule `CCCCCN(CCO)c1cc(-c2ccccc2Cl)c(N(C)C(=O)C(C)(C)c2cc(C(F)(F)F)cc(C(F)(F)F)c2)cn1` [Example 149, 2-(3,5-Bis-trifluoromethyl-phenyl)-N-{4-(2-chloro-phenyl)-6-[(2-hydroxy-ethyl)-pentyl-amino]-pyridin-3-yl}-N-methyl-isobutyramide], the Ki in test [1] (setting [3]) was 1.29 nM; in test [2] (setting [4]), 6.17 nM.

Turning to `Cc1c(F)cccc1-c1cc(N2CC[C@H](O)[C@H]2CO)ncc1N(C)C(=O)C(C)(C)c1cc(C(F)(F)F)cc(C(F)(F)F)c1` [Example 275, (2R,3S)-2-(3,5-Bis-trifluoromethyl-phenyl)-N-[4-(3-fluoro-2-methyl-phenyl)-6-(3-hydroxy-2-hydroxymethyl-pyrrolidin-1-yl)-pyridin-3-yl]-N-methyl-isobutyramide], the Ki in test [1] (setting [5]) was 1.48 nM; in test [2] (setting [6]), 0.575 nM.

On to `CC(=O)N(C)[C@@H]1CCN(c2cc(-c3ccc(F)cc3C)c(N(C)C(=O)C(C)(C)c3cc(C(F)(F)F)cc(C(F)(F)F)c3)cn2)C1` [Example 101, (R)-N-[6-[3-(Acetyl-methyl-amino)-pyrrolidin-1-yl]-4-(4-fluoro-2-methyl-phenyl)-pyridin-3-yl]-2-(3,5-bis-trifluoromethyl-phenyl)-N-methyl-isobutyramide], for which the Ki was 1.7 nM in test [1] (setting [3]) and 9.33 nM in test [2] (setting [4]).

With `Cc1cc(F)ccc1-c1cc(N2C[C@H](O)C[C@H]2CO)ncc1N(C)C(=O)C(C)(C)c1cc(Cl)cc(OC(F)F)c1` [Example 39, (2S,4R)-2-(3-Chloro-5-difluoromethoxy-phenyl)-N-[4-(4-fluoro-2-methyl-phenyl)-6-(4-hydroxy-2-hydroxymethyl-pyrrolidin-1-yl)-pyridin-3-yl]-N-methyl-isobutyramide], the Ki in test [1] (setting [3]) is 1.05 nM; in test [2] (setting [4]), 1.29 nM.

Take `CN(C(=O)C(C)(C)c1cc(C(F)(F)F)cc(C(F)(F)F)c1)c1cnc(N2C[C@@H](O)C[C@H]2CO)cc1-c1ncccc1Cl` [Example 256, (2S,4S)-2-(3,5-Bis-trifluoromethyl-phenyl)-N-[3-chloro-6′-(4-hydroxy-2-hydroxymethyl-pyrrolidin-1-yl)-[2,4′]bipyridinyl-3′-yl]-N-methyl-isobutyramide]: the results for the Ki in test [1] (setting [5]) and in test [2] (setting [6]) were 2.4 nM and 20 nM, respectively.

`CN(C(=O)C(C)(C)c1cc(C(F)(F)F)cc(C(F)(F)F)c1)c1cnc(NC(CO)CO)cc1-c1ccccc1Cl` [Example 81, 2-(3,5-Bis-trifluoromethyl-phenyl)-N-[4-(2-chloro-phenyl)-6-(2-hydroxy-1-hydroxymethyl-ethylamino)-pyridin-3-yl]-N-methyl-isobutyramide]: the Ki in test [1] (setting [3]) is 2.09 nM; in test [2] (setting [4]), 5.62 nM.

In the case of `CN(C(=O)C(C)(C)c1cc(C(F)(F)F)cc(C(F)(F)F)c1)c1cnc(N2C[C@H](O)C[C@H]2CO)cc1-c1ccccc1Br` [Example 129, (2S,4R)-2-(3,5-Bis-trifluoromethyl-phenyl)-N-[4-(2-bromo-phenyl)-6-(4-hydroxy-2-hydroxymethyl-pyrrolidin-1-yl)-pyridin-3-yl]-N-methyl-isobutyramide], the Ki in test [1] (setting [3]) was 0.851 nM; in test [2] (setting [4]), 2.63 nM.

`COc1ccccc1-c1cc(N2CCC[C@H]2CO)ncc1N(C)C(=O)C(C)(C)c1cc(C(F)(F)F)cc(C(F)(F)F)c1` [Example 280, (S)-2-(3,5-Bis-trifluoromethyl-phenyl)-N-[6-(2-hydroxymethyl-pyrrolidin-1-yl)-4-(2-methoxy-phenyl)-pyridin-3-yl]-N-methyl-isobutyramide]: the figures for the Ki in test [1] (setting [5]) and in test [2] (setting [6]) were 1.82 nM and 1.86 nM, respectively.

With `CN(C(=O)C(C)(C)c1cc(C(F)(F)F)cc(C(F)(F)F)c1)c1cnc(N2CC[C@H](N(C)C)C2)cc1-c1ccccc1Cl` [Example 65, (S)-2-(3,5-Bis-trifluoromethyl-phenyl)-N-[4-(2-chloro-phenyl)-6-(3-dimethylamino-pyrrolidin-1-yl)-pyridin-3-yl]-N-methyl-isobutyramide], the values for the Ki in test [1] (setting [3]) and in test [2] (setting [4]) were 1.15 nM and 2.75 nM, respectively.

Take `Cc1ccc(-c2cc(N3CC[C@H](O)[C@H]3CO)ncc2N(C)C(=O)C(C)(C)c2cc(C(F)(F)F)cc(C(F)(F)F)c2)cc1` [Example 267, (2R,3S)-2-(3,5-Bis-trifluoromethyl-phenyl)-N-[6-(3-hydroxy-2-hydroxymethyl-pyrrolidin-1-yl)-4-p-tolyl-pyridin-3-yl]-N-methyl-isobutyramide]: the Ki in test [1] (setting [5]) is 3.63 nM; in test [2] (setting [6]), 28.8 nM.

Consider `CN(C(=O)C(C)(C)c1cc(C(F)(F)F)cc(C(F)(F)F)c1)c1cnc(N2C[C@H](O)C[C@H]2CO)cc1-c1ccc(F)cc1F` [Example 220, (2S,4R)-2-(3,5-Bis-trifluoromethyl-phenyl)-N-[4-(2,4-difluoro-phenyl)-6-(4-hydroxy-2-hydroxymethyl-pyrrolidin-1-yl)-pyridin-3-yl]-N-methyl-isobutyramide], for which the Ki is 1.51 nM in test [1] (setting [5]) and 6.61 nM in test [2] (setting [6]).

In the case of `Cc1cc(F)ccc1-c1cc(N2CCC[C@H]2CO)ncc1N(C)C(=O)C(C)(C)c1cccc(C(F)(F)F)c1` [Example 26, (S)-N-[4-(4-Fluoro-2-methyl-phenyl)-6-(2-hydroxymethyl-pyrrolidin-1-yl)-pyridin-3-yl]-N-methyl-2-(3-trifluoromethyl-phenyl)-isobutyramide], the Ki was 3.02 nM in test [1] (setting [3]) and 5.75 nM in test [2] (setting [4]).

As for `CN(C(=O)C(C)(C)c1cc(C(F)(F)F)cc(C(F)(F)F)c1)c1cnc(N2CCC[C@H]2CO)cc1-c1ccc(Cl)c(Cl)c1` [Example 286, (S)-2-(3,5-Bis-trifluoromethyl-phenyl)-N-[4-(3,4-dichloro-phenyl)-6-(2-hydroxymethyl-pyrrolidin-1-yl)-pyridin-3-yl]-N-methyl-isobutyramide], the Ki in test [1] (setting [5]) was 1.35 nM; in test [2] (setting [6]), 3.72 nM.

With `CN(C(=O)C(C)(C)c1cc(C(F)(F)F)cc(C(F)(F)F)c1)c1cnc(N[C@@H]2CCC[C@H]2O)cc1-c1ccccc1Cl` [Example 152, (1R,2R)-2-(3,5-Bis-trifluoromethyl-phenyl)-N-[4-(2-chloro-phenyl)-6-(2-hydroxy-cyclopentylamino)-pyridin-3-yl]-N-methyl-isobutyramide], the Ki in test [1] (setting [3]) was 0.759 nM; in test [2] (setting [4]), 7.76 nM.

On to `Cc1ccccc1-c1cc(NC(CO)CO)ncc1N(C)C(=O)C(C)(C)c1cc(C(F)(F)F)cc(C(F)(F)F)c1` [Example 143, 2-(3,5-Bis-trifluoromethyl-phenyl)-N-[6-(2-hydroxy-1-hydroxymethyl-ethylamino)-4-o-tolyl-pyridin-3-yl]-N-methyl-isobutyramide], for which the figures for the Ki in test [1] (setting [3]) and in test [2] (setting [4]) were 3.02 nM and 3.63 nM, respectively.

As for `Cc1cc(F)ccc1-c1cc(N2CC[C@H](NS(C)(=O)=O)C2)ncc1N(C)C(=O)C(C)(C)c1cc(C(F)(F)F)cc(C(F)(F)F)c1` [Example 104, (S)-2-(3,5-Bis-trifluoromethyl-phenyl)-N-[4-(4-fluoro-2-methyl-phenyl)-6-(3-methanesulfonylamino-pyrrolidin-1-yl)-pyridin-3-yl]-N-methyl-isobutyramide], the results for the Ki in test [1] (setting [3]) and in test [2] (setting [4]) were 1.62 nM and 6.76 nM, respectively.

On to `COc1ccccc1-c1cc(N2C[C@@H](O)C[C@H]2CO)ncc1N(C)C(=O)C(C)(C)c1cc(C(F)(F)F)cc(C(F)(F)F)c1` [Example 244, (2S,4S)-2-(3,5-Bis-trifluoromethyl-phenyl)-N-[6-(4-hydroxy-2-hydroxymethyl-pyrrolidin-1-yl)-4-(2-methoxy-phenyl)-pyridin-3-yl]-N-methyl-isobutyramide], for which the Ki in test [1] (setting [5]) is 1 nM; in test [2] (setting [6]), 7.08 nM.

On to `CN(C(=O)C(C)(C)c1cc(C(F)(F)F)cc(C(F)(F)F)c1)c1cnc(N2CC[C@H](O)[C@H]2CO)cc1-c1ccc(F)cc1Cl` [Example 272, (2R,3S)-2-(3,5-Bis-trifluoromethyl-phenyl)-N-[4-(2-chloro-4-fluoro-phenyl)-6-(3-hydroxy-2-hydroxymethyl-pyrrolidin-1-yl)-pyridin-3-yl]-N-methyl-isobutyramide], for which the values for the Ki in test [1] (setting [5]) and in test [2] (setting [6]) were 2 nM and 1.1 nM, respectively.

Consider `CN(C(=O)C(C)(C)c1cc(C(F)(F)F)cc(C(F)(F)F)c1)c1cnc(N2CC[C@H](O)[C@H]2CO)cc1-c1ccc(F)cc1CO` [Example 274, (2R,3S)-2-(3,5-Bis-trifluoromethyl-phenyl)-N-[4-(4-fluoro-2-hydroxymethyl-phenyl)-6-(3-hydroxy-2-hydroxymethyl-pyrrolidin-1-yl)-pyridin-3-yl]-N-methyl-isobutyramide], for which the Ki in test [1] (setting [5]) is 1.29 nM; in test [2] (setting [6]) it was 1.51 nM.

Take `CN(C(=O)C(C)(C)c1cc(C(F)(F)F)cc(C(F)(F)F)c1)c1cnc(N2C[C@@H](O)C[C@H]2CO)cc1-c1ccc(F)cc1CO` [Example 240, (2S,4S)-2-(3,5-Bis-trifluoromethyl-phenyl)-N-[4-(4-fluoro-2-hydroxymethyl-phenyl)-6-(4-hydroxy-2-hydroxymethyl-pyrrolidin-1-yl)-pyridin-3-yl]-N-methyl-isobutyramide]: the Ki is 0.794 nM in test [1] (setting [5]) and 3.02 nM in test [2] (setting [6]).
